Experimental data from ChEMBL document CHEMBL1136505, “Myxovirescin analogues via macrocyclic ring-closing metathesis” (2003).
Active and inactive are the calls of the source.

Tests used:
Pasteurella sp. [1] = experiment: Antibacterial activity against Pasteurella sp.(ATCC 67777) at a concentration of 200 ug/mL; not active; assay type: functional, organism-based
Bacteroides ovatus [2] = experiment: Antibacterial activity against Bacteroides ovatus (ATCC 66640) at a concentration of 200 ug/mL; not active; assay type: functional, organism-based
Porphyromonas gingivalis [3] = experiment: Antibacterial activity against Porphyromonas gingivalis sp.(ATCC D23C) at a concentration of 200 ug/mL; assay type: functional, organism-based
Escherichia coli [4] = experiment: Antibacterial activity against Escherichia coli (ATCC NCTC 6571) at a concentration of 200 ug/mL; not active; assay type: functional, organism-based
Pasteurella sp. [5] = experiment: Antibacterial activity against Pasteurella sp.(ATCC 71886) at a concentration of 200 ug/mL; not active; assay type: functional, organism-based
Corynebacterium sp. [6] = experiment: Antibacterial activity against Corynebacterium sp. (ATCC 68984) at a concentration of 200 ug/mL; Active; assay type: functional, organism-based
[7] = test system: Pseudoflavonifractor capillosus; experiment: Antibacterial activity against Bacteroides capillosus (ATCC 60802) at a concentration of 200 ug/mL; not active; assay type: functional, organism-based
Bacteroides uniformis [8] = experiment: Antibacterial activity against Bacteroides uniformis (ATCC 62723) at a concentration of 200 ug/mL; not active; assay type: functional, organism-based
Propionibacterium [9] = experiment: Antibacterial activity against Propionibacterium sp.(ATCC 72661) at a concentration of 200 ug/mL; Active; assay type: functional, organism-based
Fusobacterium mortiferum [10] = experiment: Antibacterial activity against Fusobacterium mortiferum (ATCC 63425) at a concentration of 200 ug/mL; not active; assay type: functional, organism-based
Schaalia meyeri [11] = experiment: Antibacterial activity against Actinomyces meyeri (ATCC 61789) at a concentration of 200 ug/mL; Active; assay type: functional, organism-based
Porphyromonas canoris [12] = experiment: Antibacterial activity against Porphyromonas canoris (ATCC NCTC 12835) at a concentration of 200 ug/mL; Active; assay type: functional, organism-based
Pasteurella sp. [13] = experiment: Antibacterial activity against Pasteurella sp.(ATCC 67535) at a concentration of 200 ug/mL; Active; assay type: functional, organism-based
Hoylesella oralis [14] = experiment: Antibacterial activity against Bacteroides oralis (ATCC 72708) at a concentration of 200 ug/mL; not active; assay type: functional, organism-based
Pasteurella multocida [15] = experiment: Antibacterial activity against Pasteurella multocida (ATCC 63560) at a concentration of 200 ug/mL; not active; assay type: functional, organism-based
Pasteurella sp. [16] = experiment: Antibacterial activity against Pasteurella sp.(ATCC 69527) at a concentration of 200 ug/mL; not active; assay type: functional, organism-based
Staphylococcus aureus [17] = experiment: Antibacterial activity against Staphylococcus aureus (ATCC NCTC 6571) at a concentration of 200 ug/mL; not active; assay type: functional, organism-based
Fusobacterium sp. [18] = experiment: Antibacterial activity against Fusobacterium sp.(ATCC 74714) at a concentration of 200 ug/mL; not active; assay type: functional, organism-based
Actinomyces sp. [19] = experiment: Antibacterial activity against Actinomyces sp.(ATCC 70710) at a concentration of 200 ug/mL; Active; assay type: functional, organism-based
Porphyromonas canoris [20] = experiment: Antibacterial activity against Porphyromonas canoris (ATCC NCTC 12836) at a concentration of 200 ug/mL; Active; assay type: functional, organism-based
Prevotella buccae [21] = experiment: Antibacterial activity against Bacteroides buccae (ATCC 67792) at a concentration of 200 ug/mL; not active; assay type: functional, organism-based; conditions: Segatella buccae
Prevotella bivia [22] = experiment: Antibacterial activity against Bacteroides bivus (ATCC 64362) at a concentration of 200 ug/mL; not active; assay type: functional, organism-based
Pasteurella multocida [23] = experiment: Antibacterial activity against Pasteurella multocida (ATCC 61096) at a concentration of 200 ug/mL; not active; assay type: functional, organism-based
Porphyromonas canoris [24] = experiment: Minimum inhibitory concentration against Porphyromonas canoris (ATCC NCTC 12836) using agar method; assay type: functional
Pasteurella sp. [25] = experiment: Minimum inhibitory concentration against Pasteurella sp.(ATCC 71886) using agar method; assay type: functional
Pasteurella multocida [26] = experiment: Minimum inhibitory concentration against Pasteurella multocida (ATCC 63560) using agar method; assay type: functional
Prevotella bivia [27] = experiment: Minimum inhibitory concentration against Bacteroides bivus (ATCC 64362) using agar method; assay type: functional
Porphyromonas canoris [28] = experiment: Minimum inhibitory concentration against Porphyromonas canoris (ATCC NCTC 12835) using agar method; assay type: functional
Pasteurella multocida [29] = experiment: Minimum inhibitory concentration against Pasteurella multocida (ATCC 61096) using agar method; assay type: functional
Pasteurella sp. [30] = experiment: Minimum inhibitory concentration against Pasteurella sp.(ATCC 67777) using agar method; assay type: functional
Prevotella buccae [31] = experiment: Minimum inhibitory concentration against Bacteroides buccae (ATCC 67792) using agar method; assay type: functional; conditions: Segatella buccae
Hoylesella oralis [32] = experiment: Minimum inhibitory concentration against Bacteroides oralis (ATCC 72708) using agar method; assay type: functional
Pasteurella sp. [33] = experiment: Minimum inhibitory concentration against Pasteurella sp.(ATCC 69527) using agar method; assay type: functional
Fusobacterium sp. [34] = experiment: Minimum inhibitory concentration against Fusobacterium sp.(ATCC 74714) using agar method; assay type: functional, fusobacterium species
Corynebacterium sp. [35] = experiment: Minimum inhibitory concentration against Corynebacterium sp. (ATCC 68984) using agar method; assay type: functional
Propionibacterium [36] = experiment: Minimum inhibitory concentration against Propionibacterium sp.(ATCC 72661) using agar method; assay type: functional
Escherichia coli [37] = experiment: Minimum inhibitory concentration against Escherichia coli (ATCC NCTC 6571) using agar method; assay type: functional
Bacteroides uniformis [38] = experiment: Minimum inhibitory concentration against Bacteroides uniformis (ATCC 62723) using agar method; assay type: functional
Pasteurella sp. [39] = experiment: Minimum inhibitory concentration against Pasteurella sp.(ATCC 67535) using agar method; assay type: functional
Fusobacterium mortiferum [40] = experiment: Minimum inhibitory concentration against Fusobacterium mortiferum (ATCC 63425) using agar method; assay type: functional
[41] = test system: Pseudoflavonifractor capillosus; experiment: Minimum inhibitory concentration against Bacteroides capillosus (ATCC 60802) using agar method; assay type: functional
Bacteroides ovatus [42] = experiment: Minimum inhibitory concentration against Bacteroides ovatus (ATCC 66640) using agar method; assay type: functional
Staphylococcus aureus [43] = experiment: Minimum inhibitory concentration against Staphylococcus aureus (ATCC NCTC 6571) using agar method; assay type: functional
Porphyromonas gingivalis [44] = experiment: Minimum inhibitory concentration against Porphyromonas gingivalis sp.(ATCC D23C) using agar method; assay type: functional
Actinomyces sp. [45] = experiment: Minimum inhibitory concentration against Actinomyces sp.(ATCC 70710) using agar method; assay type: functional
Schaalia meyeri [46] = experiment: Minimum inhibitory concentration against Actinomyces meyeri (ATCC 61789) using agar method; assay type: functional
Bacteroides ovatus [47] = experiment: Antibacterial activity against Bacteroides ovatus (ATCC 66640) at a concentration of 200 ug/mL; Active; assay type: functional, organism-based
Hoylesella oralis [48] = experiment: Antibacterial activity against Bacteroides oralis (ATCC 72708) at a concentration of 200 ug/mL; Active; assay type: functional, organism-based
Staphylococcus aureus [49] = experiment: Antibacterial activity against Staphylococcus aureus (ATCC NCTC 6571) at a concentration of 200 ug/mL; Active; assay type: functional, organism-based
Porphyromonas gingivalis [50] = experiment: Antibacterial activity against Porphyromonas gingivalis sp.(ATCC D23C) at a concentration of 200 ug/mL; Active; assay type: functional, organism-based
Pasteurella sp. [51] = experiment: Antibacterial activity against Pasteurella sp.(ATCC 67535) at a concentration of 200 ug/mL; not active; assay type: functional, organism-based
Corynebacterium sp. [52] = experiment: Antibacterial activity against Corynebacterium sp. (ATCC 68984) at a concentration of 200 ug/mL; not active; assay type: functional, organism-based
Propionibacterium [53] = experiment: Antibacterial activity against Propionibacterium sp.(ATCC 72661) at a concentration of 200 ug/mL; not active; assay type: functional, organism-based
Actinomyces sp. [54] = experiment: Antibacterial activity against Actinomyces sp.(ATCC 70710) at a concentration of 200 ug/mL; not active; assay type: functional, organism-based

CCC[C@@H]1OC(=O)CCCCCCCCCCCCCC/C=C(\C)CC[C@@H](O)[C@@H](O)C[C@H](O)CNC1=O
active: Activity (Corynebacterium sp. [6]) | Activity (Propionibacterium [9]) | Activity (Schaalia meyeri [11]) | Activity (Porphyromonas canoris [12]) | Activity (Pasteurella sp. [13]) | Activity (Actinomyces sp. [19]) | Activity (Porphyromonas canoris [20])
inactive: Activity (Pasteurella sp. [1]) | Activity (Bacteroides ovatus [2]) | Activity (Porphyromonas gingivalis [3]) | Activity (Escherichia coli [4]) | Activity (Pasteurella sp. [5]) | Activity [7] | Activity (Bacteroides uniformis [8]) | Activity (Fusobacterium mortiferum [10]) | Activity (Hoylesella oralis [14]) | Activity (Pasteurella multocida [15]) | Activity (Pasteurella sp. [16]) | Activity (Staphylococcus aureus [17]) | Activity (Fusobacterium sp. [18]) | Activity (Prevotella buccae [21]) | Activity (Prevotella bivia [22]) | Activity (Pasteurella multocida [23])

CCC[C@@H]1OC(=O)[C@@H](C)C[C@H](C)CCCCC(=O)CCC[C@@H](CC)/C=C/C=C(\COC)CC[C@@H](O)[C@@H](O)C[C@H](O)CNC1=O
> 50 µg/mL: MIC (Pasteurella multocida [26]) | MIC (Prevotella bivia [27]) | MIC (Pasteurella multocida [29]) | MIC (Hoylesella oralis [32]) | MIC (Fusobacterium sp. [34]) | MIC (Corynebacterium sp. [35]) | MIC (Propionibacterium [36]) | MIC (Bacteroides uniformis [38]) | MIC (Bacteroides ovatus [42]) | MIC (Staphylococcus aureus [43]) | MIC (Actinomyces sp. [45]) | MIC (Schaalia meyeri [46])
12.5 µg/mL: MIC (Pasteurella sp. [25]) | MIC (Pasteurella sp. [30]) | MIC (Prevotella buccae [31]) | MIC (Pasteurella sp. [39]) | MIC (Fusobacterium mortiferum [40])
6.25 µg/mL: MIC (Escherichia coli [37])
25 µg/mL: MIC (Porphyromonas canoris [24]) | MIC (Porphyromonas canoris [28]) | MIC (Pasteurella sp. [33]) | MIC [41] | MIC (Porphyromonas gingivalis [44])

CCC[C@@H]1OC(=O)[C@@H](C)C[C@H](C)CCCCC(=O)CCC[C@@H](CC)CC/C=C(\COC)CC[C@@H](O)[C@@H](O)C[C@H](O)CNC1=O
12.5 µg/mL: MIC (Corynebacterium sp. [35]) | MIC (Bacteroides uniformis [38]) | MIC [41] | MIC (Bacteroides ovatus [42]) | MIC (Schaalia meyeri [46])
6.25 µg/mL: MIC (Prevotella bivia [27]) | MIC (Hoylesella oralis [32])
1.56 µg/mL: MIC (Pasteurella multocida [29]) | MIC (Pasteurella sp. [30]) | MIC (Porphyromonas gingivalis [44])
0.78 µg/mL: MIC (Pasteurella sp. [25]) | MIC (Pasteurella multocida [26]) | MIC (Pasteurella sp. [39])
3.12 µg/mL: MIC (Pasteurella sp. [33]) | MIC (Escherichia coli [37])
> 50 µg/mL: MIC (Prevotella buccae [31]) | MIC (Fusobacterium mortiferum [40]) | MIC (Staphylococcus aureus [43])

CCC[C@H]1OC(=O)CCCCCCCCCCCCCC/C=C/C[C@H](O)[C@H](O)[C@@H](O)[C@H](O)[C@H](O)CNC1=O
active: Activity (Bacteroides ovatus [47]) | Activity (Corynebacterium sp. [6]) | Activity (Propionibacterium [9]) | Activity (Hoylesella oralis [48]) | Activity (Schaalia meyeri [11]) | Activity (Porphyromonas canoris [12]) | Activity (Pasteurella sp. [13]) | Activity (Staphylococcus aureus [49]) | Activity (Actinomyces sp. [19]) | Activity (Porphyromonas gingivalis [50]) | Activity (Porphyromonas canoris [20])
inactive: Activity (Pasteurella sp. [1]) | Activity (Escherichia coli [4]) | Activity (Pasteurella sp. [5]) | Activity [7] | Activity (Bacteroides uniformis [8]) | Activity (Fusobacterium mortiferum [10]) | Activity (Pasteurella multocida [15]) | Activity (Pasteurella sp. [16]) | Activity (Fusobacterium sp. [18]) | Activity (Prevotella buccae [21]) | Activity (Prevotella bivia [22]) | Activity (Pasteurella multocida [23])

CCC[C@@H]1OC(=O)CCCCCCCCCCCCCC/C=C/C[C@H](O)[C@H](O)[C@@H](O)[C@H](O)[C@H](O)CNC1=O
active: Activity (Schaalia meyeri [11]) | Activity (Porphyromonas canoris [12]) | Activity (Porphyromonas canoris [20])
inactive: Activity (Pasteurella sp. [1]) | Activity (Pasteurella sp. [51]) | Activity (Bacteroides ovatus [2]) | Activity (Corynebacterium sp. [52]) | Activity (Porphyromonas gingivalis [3]) | Activity (Escherichia coli [4]) | Activity (Pasteurella sp. [5]) | Activity (Propionibacterium [53]) | Activity [7] | Activity (Bacteroides uniformis [8]) | Activity (Fusobacterium mortiferum [10]) | Activity (Hoylesella oralis [14]) | Activity (Pasteurella multocida [15]) | Activity (Pasteurella sp. [16]) | Activity (Staphylococcus aureus [17]) | Activity (Fusobacterium sp. [18]) | Activity (Actinomyces sp. [54]) | Activity (Prevotella buccae [21]) | Activity (Prevotella bivia [22]) | Activity (Pasteurella multocida [23])
